We go through 4 compounds from ChEMBL document CHEMBL1138670, “Prospects for inhibitors of protein tyrosine phosphatase 1B as antidiabetic drugs” (J Med Chem, 2004).

Data set [1] has as its target T1, Tyrosine-protein phosphatase non-receptor type 1 (Homo sapiens) (UniProt P18031).
T1 sequence (whole entry): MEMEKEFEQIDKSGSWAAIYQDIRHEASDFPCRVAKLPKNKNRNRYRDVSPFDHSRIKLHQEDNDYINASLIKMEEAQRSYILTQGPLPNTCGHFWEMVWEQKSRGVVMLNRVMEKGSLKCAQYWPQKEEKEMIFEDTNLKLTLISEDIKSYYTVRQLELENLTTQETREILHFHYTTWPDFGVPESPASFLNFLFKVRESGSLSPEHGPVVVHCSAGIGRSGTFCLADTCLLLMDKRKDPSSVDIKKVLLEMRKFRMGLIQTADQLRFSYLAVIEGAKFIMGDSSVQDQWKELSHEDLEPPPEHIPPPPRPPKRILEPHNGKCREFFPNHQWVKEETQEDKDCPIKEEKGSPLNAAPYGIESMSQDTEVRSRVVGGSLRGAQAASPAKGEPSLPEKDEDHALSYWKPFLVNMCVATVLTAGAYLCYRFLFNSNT
Put plainly: Inhibitory concentration for Protein-tyrosine phosphatase 1B.

Data set [2] is described as follows: Bioavailability. Particulars: eutheria, in vivo; read-out: Fez. The format is ADME, organism-based.
Data set [3] addresses T2, Tyrosine-protein phosphatase non-receptor type 1 (Homo sapiens, UniProt P18031).
T2 sequence (P18031 whole entry): T1 sequence (whole entry)
Put plainly: Inhibitory activity against Protein-tyrosine phosphatase 1B.

Data set [4] addresses T2, Tyrosine-protein phosphatase non-receptor type 1. Briefly: Inhibitory activity against Protein-tyrosine phosphatase 1B at pH 5.5.

Molecules are shown by their SMILES.

In data set [1], `CC(C)c1ccc(N2N=C3CSCC=C3C(C#N)=C2N)cc1` displayed a Concentration of 5.6 µM.

As to `O=C(c1ccccc1)C(Cc1ccc(C(F)(F)P(=O)(O)O)cc1)c1ccccc1` (centres undefined), the bioavailability in data set [2] is 13%.

In general, Ki refers to the dissociation constant of the complex between target and ligand, obtained from inhibition or displacement. A low value points to higher affinity. Compound `CCc1cc(CC(NC(C)=O)C(=O)NCCCCC(=O)N[C@@H](CCSC)C(=O)O)ccc1N(C(=O)C(=O)O)c1ccccc1C(=O)O` (some centres undefined) came in with a Ki in data set [3] of 77 nM.

`O=C(O)C(=O)Nc1sc2c(c1C(=O)O)CCN[C@H]2CNC(=O)c1cc2cc(F)ccc2[nH]1`: in data set [4], the affinity, expressed as Ki, was 18 nM.
